The values that follow come from patent US5273979A, “C-31 desmethyl FR-900520 cyclic hemiketal immunosuppressant agent” (Merck & Co., Inc., priority 1991, dated 1993).

“Also recorded” adds a separate entry of the source. Read-outs that look alike come from different tables or passages of the source.

One may read the IC50 as the concentration that inhibits the measured activity by half.

In assay [1] the test system is Splenic T-cells stimulated with ionomycin + PMA. Briefly: T-cell proliferation assay (ionomycin plus PMA induced T-cell stimulation assay). It counts as cell-based, mouse. The protocol:
Cells were pelleted by centrifugation at 1500 rpm for 8 minutes. Contaminating red cells were removed by treating the pellet with ammonium chloride lysing buffer (GIBCO) for 2 minutes at 4° C. Cold medium was added and cells were again centrifuged at 1500 rpm for 8 minutes. T lymphocytes were then isolated by separation of the cell suspension on nylon wool columns as follows: Nylon wool columns were prepared by packing approximately 4 grams of washed and dried nylon wool into 20 ml plastic syringes. The columns were sterilized by autoclaving at 250° F. for 30 minutes. Nylon wool columns were wetted with warm (37° C.) culture medium and rinsed with the same medium. Washed spleen cells resuspended in warm medium were slowly applied to the nylon wool. The columns were then incubated in an upright position at 37° C. for 1 hour. Non-adherent T lymphocytes were eluted from the columns with warm culture medium and the cell suspensions were spun as above.
The cell suspension was immediately distributed into 96 well flat-bottom microculture plates (Costar) at 200 μl/well. […] The proliferation of T lymphocytes was assessed by measurement of tritiated thymidine incorporation. After 44 hours of culturing, the cells were pulse-labelled with 2 μCi/well of tritiated thymidine (NEN, Cambridge, Mass.). After another 4 hours of incubation, cultures were harvested on glass fiber filters using a multiple sample harvester. Radioactivity of filter discs corresponding to individual wells was measured by standard liquid scintillation counting methods (Betacounter). Mean counts per minute of replicate wells were calculated and the results expressed as percent inhibition of tritiated thymidine uptake (proliferation) as follows: [formula]

Assay [2] concerns the target T1, 31-O-desmethylimmunomycin O-methyltransferase (DIMT) (Streptomyces hygroscopicus, UniProt Q9KID5).
T1 construct: cell-free extract, DEAE-Sepharose pool, or second MonoQ preparation (kinetics)
T1 sequence (Q9KID5 1-260): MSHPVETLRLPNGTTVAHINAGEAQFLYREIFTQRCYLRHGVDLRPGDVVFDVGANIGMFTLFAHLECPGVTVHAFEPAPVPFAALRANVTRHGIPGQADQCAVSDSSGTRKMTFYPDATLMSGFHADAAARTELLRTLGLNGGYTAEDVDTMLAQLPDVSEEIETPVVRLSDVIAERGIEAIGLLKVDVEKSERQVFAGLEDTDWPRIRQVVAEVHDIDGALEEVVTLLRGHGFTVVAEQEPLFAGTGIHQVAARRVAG
Briefly: S-adenosyl-L-methionine: 31-O-desmethylimmunomycin O-methyltransferase (DIMT) assay. Type of assay: biochemical, Streptomyces hygroscopicus var. ascomyceticus. The protocol: The assay was carried out in 1 ml. mixture containing 0.025 mM 31-desmethylimmunomycin, 1 mM MgSO4 and different quantities of the enzyme source in 50 mM phosphate buffer, pH 7.5. Reaction was initiated by the addition of 1 nmole of ^14 C-SAM (S-adenosyl-L-[methyl-^14 C] methionine with the specific activity of 46 mCi/mmole. Incubation of the complete mixture was carried out at 34° C. for 20 minutes and the reaction was terminated by the addition of ethyl acetate. Product of the reaction was extracted with 2 ml of ethyl acetate and 1 ml of the extract was used for TLC and HPLC analysis. For the analysis of the radioactive reaction product (immunomycin), the ethyl acetate extract was spiked with the standard immunomycin and subjected to the TLC with a plate having plastic support. The plastic sheet was developed in chloroform:methanol (9:1) and area showing standard immunomycin under UV-light was cut and the radioactivity in the cut-strip was measured. The amount of the product formed was calculated from the measured radioactivity. For the HPLC analysis of the product of the enzyme reaction, several enzymatic reaction mixtures were pooled and the extract was subjected to the TLC analysis as above. The area on the silica gel plate showing the band having an Rf value identical with the standard immunomycin was scraped and eluted with ethyl acetate. The ethyl acetate extract was washed with water, dried under nitrogen and the residue was subjected to the HPLC analysis on Partisil 5-ODS-3 column with acetonitrile:water:phosphoric acid (65:35:0.1) as the eluting solvent. One milliliter fractions were collected and a portion of each fraction was examined for the radioactivity.
Examination of the optimal temperature, pH and metal requirement of the DIMT activity was carried out on the enzyme preparation obtained from DEAE-Sepharose column. For kinetic analysis, a preparation which had been purified through a second MonoQ column chromatography was utilized.

In the case of `CC[C@@H]1C=C2COC1(O)C[C@H](O)[C@@H](C)[C@@H](/C(C)=C/[C@@H]1CC[C@@H](O)[C@H](OC)C1)OC(=O)[C@@H]1CCCCN1C(=O)C(=O)[C@]1(O)O[C@H]([C@@H](OC)C[C@@H](C)C2)[C@@H](OC)C[C@H]1C` [Compound II], the “Inhibition of T-cell activation (result in words)” value in assay [1] is given as “positive inhibition of T-cell activation; also recorded: positive results”.

As to `CC[C@@H]1C=C2COC1(O)C[C@H](O)[C@@H](C)[C@@H](/C(C)=C/[C@@H]1CC[C@@H](O)[C@H](O)C1)OC(=O)[C@@H]1CCCCN1C(=O)C(=O)[C@]1(O)O[C@H]([C@@H](OC)C[C@@H](C)C2)[C@@H](OC)C[C@H]1C` [Compound I], in assay [1], the “Activity versus the FK-506 immunosuppressive activity (result in words)” value was “antagonist activity” and the “Inhibition of T-cell activation (result in words)” value is recorded as “positive inhibition of T-cell activation”. Further, in assay [1] (50 units/ml recombinant IL2 added at the initiation of culture), the “Reversal of inhibition of T-cell proliferation by IL2” value is “reversed”. In assay [1] (Mus musculus, T-cell, general range, read-out: IC50, generally in the range), the IC50 is 0.01 to 0.018 µM.

For `O=C(O)CN(CCN(CC(=O)O)CC(=O)O)CC(=O)O` [EDTA], the “Inhibition of DIMT activity (result in words)” value (“Inhibition of DIMT activity” below) is on record as “major inhibition” in assay [2] and “completely inhibited” in assay [2] (crude extract).

`Nc1ncnc2c1ncn2[C@@H]1O[C@H](CSCC[C@H](N)C(=O)O)[C@@H](O)[C@H]1O` [S-adenosyl-homocysteine (SAH), S-adenosyl-homocysteine]: the “Inhibition of DIMT activity” value in assay [2] is recorded as “major inhibition”.

As to `N.N.O=S(=O)(O)O` [ammonium sulfate], in assay [2] (crude extract), the “Inhibition of DIMT activity” value is on record as “inhibited”.

In the case of `Nc1ncnc2c1ncn2[C@@H]1O[C@H](C[C@@H](N)CC[C@H](N)C(=O)O)[C@@H](O)[C@H]1O` [sinefungin], the “Inhibition of DIMT activity” value in assay [2] is reported as “major inhibition”.
